molecular target: TNFα trimer (Homo sapiens, UniProt P01375); test: TNFα FP Competitive Binding Assay; settings: TNFα FP competitive binding assay; class symbols A/B/C; read-out: TNF IC50
Method: TNFα FP Competitive Binding Assay
• 1. Assay Buffer: Prepare 1× Assay Buffer (Water with 47 mM HEPES, 47 mM NaCl, 0.9 mM EDTA, 0.0071% Triton X-100) by adding 25 mL of 1 M HEPES, 5 mL of 5 M NaCl, 1 mL of 0.5 M EDTA, and 375 μL of a 10% Triton X-100 stock to a fresh 500 mL bottle of water. • 2. Assay Mixture: Prepare fresh Assay Mixture containing 20 nM TNFα trimer (60 nM protein) and 1 nM 2′,7′-difluoro-3′,6′-dihydroxy-N-(2-(2-(2-((4-(isoquinolin-8-yl)-3-(4-(isoquinolin-8-yl)phenethoxy)benzyl)oxy)ethoxy)ethoxy)ethyl)-3-oxo-3H-spiro[isobenzofuran-1,9′-xanthene]-5-carboxamide probe in 1× Assay Buffer.
Compound Plate Preparation
Manual 12-point 1:3 Dilution Plates: (384 well polypropylene plates)
Top concentration of compounds, 10 mM in DMSO, dispensed in rows A-O in columns 1 and 13. Compounds are serially diluted 1:3 with DMSO in columns 2-12 or 14-24 using a 16-channel Matrix pipettor. Plates stored at −20° C.
Discovery Preps 12-point 1:3 Dilution Plates: (384 well assay plates)
Top concentration, 5 mM in DMSO, of compounds placed in rows A-O in columns 1 and 13. Compounds are serially diluted 1:3 with DMSO in columns 2-12 or 14-24. Compound solutions are dispensed into replicate assay plates at 410 nL per well. Plates stored at 4° C.
TNFα FP Competitive Binding Assay Protocol
• 1. Compound plates are warmed to rt. • 2. Fresh Assay Mixture is prepared. • 3. Assay Mixture (20 μL) is dispensed each well of 384 assay plates using a Thermo Multidrop Combi or 16-channel Matrix pipettor. If Manual 12-point 1:3 Dilution Plates are to be tested, Assay Mix is dispensed into empty plates. Discovery Preps 12-point 1:3 Dilution Plates already contain 410 nL compound solution in DMSO. • 4. For Manual 12-point 1:3 Dilution Plates, 0.7 μL is manually transferred using a 16-channel Matrix pipettor to replicate assay plates containing 20 μL Assay Mixture for a final top compound concentration of 338 μM (3.4% DMSO). • 5. For Discovery Preps 12-point 1:3 Dilution Plates, 20 μL Assay Mixture added the 410 nL compound solution already in the plates yields a final top compound concentration of 100 μM (2.0% DMSO). • 6. Background subtraction controls are wells P1-P8 containing only Assay Buffer. The low % inhibition controls are wells P9-P16 containing only Assay Mix. The high % inhibition are wells P17-P24 containing only 1 nM 2′,7′-difluoro-3′,6′-dihydroxy-N-(2-(2-(2-((4-(isoquinolin-8-yl)-3-(4-(isoquinolin-8-yl)phenethoxy)benzyl)oxy)ethoxy)ethoxy)ethyl)-3-oxo-3H-spiro[isobenzofuran-1,9′-xanthene]-5-carboxamide probe in 1× Assay Buffer. • 7. Plates are incubated at […] for 18-24 h in 37° C. incubator (CO2 is off). • 8. Prior to reading the assay, the plates are placed in a dark cabinet to equilibrate at rt for one hour. • 9. Background-subtracted fluorescence polarization (mP) is measured using a PerkinElmer Envision plate reader. • 10. Raw data is entered into Assay Explorer and dose-response curves are generated using a variable slope curve.

Chain of TNFα trimer (P01375 77-233 limits assumed): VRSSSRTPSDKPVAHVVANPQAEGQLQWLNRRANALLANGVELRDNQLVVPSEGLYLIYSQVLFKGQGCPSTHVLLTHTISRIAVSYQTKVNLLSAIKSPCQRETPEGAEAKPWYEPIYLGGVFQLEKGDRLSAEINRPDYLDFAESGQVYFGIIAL

IC50 | SMILES
< 1000 nM | O=C1NC[C@@H]2CN(c3ncc(-c4ccc5nc6n(c5n4)C4(COC6)COc5ccccc54)cn3)CCN12 (stereo partly shown) [AU.1]
1000 to 10000 nM | OC1CC(Nc2ncc(-c3ccc4nc5n(c4n3)C3(COC5)COc4ccccc43)cn2)C1 (stereo not shown) [AU.2]
1000 to 10000 nM | c1ccc2c(c1)OCC21COCc2nc3ccc(-c4cnc(NC5CCOC5)nc4)nc3n21 (stereo not shown) [AU.3]
< 1000 nM | OC1CCCN(c2ncc(-c3ccc4nc5n(c4n3)C3(COC5)COc4ccccc43)cn2)C1 (stereo not shown) [AU.4]
1000 to 10000 nM | CN1CCN(c2ncc(-c3ccc4nc5n(c4n3)C3(COC5)COc4ccccc43)cn2)CC1 (stereo not shown) [AU.5]
< 1000 nM | OCC1CCCN(c2ncc(-c3ccc4nc5n(c4n3)C3(CCc4ccccc43)COC5)cn2)C1 (stereo not shown) [AV.1]
< 1000 nM | O=C1NC[C@@H]2CN(c3ncc(-c4ccc5nc6n(c5n4)C4(CCc5ccccc54)COC6)cn3)CCN12 (stereo partly shown) [AV.2]
< 1000 nM | c1ccc2c(c1)CCC21COCc2nc3ccc(-c4cnc(N5CCCOCC5)nc4)nc3n21 (stereo not shown) [AV.3]
< 1000 nM | OC1CCN(c2ncc(-c3ccc4nc5n(c4n3)C3(CCc4ccccc43)COC5)cn2)CC1(F)F (stereo not shown) [AV.4]
< 1000 nM | CC(O)C(=O)N1CCN(c2ncc(-c3ccc4nc5n(c4n3)C3(CCc4ccccc43)COC5)cn2)CC1 (stereo not shown) [AV.5]
< 1000 nM | O=C(CO)N1CCN(c2ncc(-c3ccc4nc5n(c4n3)C3(CCc4ccccc43)COC5)cn2)CC1 (stereo not shown) [AV.6]
< 1000 nM | OCC1(F)CCN(c2ncc(-c3ccc4nc5n(c4n3)C3(CCc4ccccc43)COC5)cn2)CC1 (stereo not shown) [AV.7]
< 1000 nM | c1ccc2c(c1)CCC21COCc2nc3ccc(-c4cnc(N5CCOCC5)nc4)nc3n21 (stereo not shown) [AV.8]
< 1000 nM | OC1CCCN(c2ncc(-c3ccc4nc5n(c4n3)C3(CCc4ccccc43)COC5)cn2)CC1 (stereo not shown) [AV.9]
1000 to 10000 nM | O=c1cc(-c2ccc3nc4n(c3n2)[C@@H](c2ccccc2)CC4)ccn1CC1CCC(F)(F)CC1 [AW.1]
1000 to 10000 nM | COCCn1ccc(-c2ccc3nc4n(c3n2)[C@@H](c2ccccc2)CC4)cc1=O [AW.2]
1000 to 10000 nM | O=c1cc(-c2ccc3nc4n(c3n2)[C@@H](c2ccccc2)CC4)ccn1CC1CCOCC1 [AW.3]
10000 to 100000 nM | O=c1cc(-c2ccc3nc4n(c3n2)[C@@H](c2ccccc2)CC4)ccn1C1CCOCC1 [AW.5]
1000 to 10000 nM | c1ccc([C@H]2CCc3nc4ccc(-c5cnn(C6CCOCC6)c5)nc4n32)cc1 [AW.6]
< 1000 nM | O[C@H]1CC[C@H](Oc2cc(-c3ccc4nc5n(c4n3)C3(COC5)COc4ccccc43)ccn2)CC1 (stereo partly shown) [AX.1]
1000 to 10000 nM | O[C@H]1CC[C@@H](Oc2cc(-c3ccc4nc5n(c4n3)C3(COC5)COc4ccccc43)ccn2)CC1 (stereo partly shown) [AX.2]
< 1000 nM | OC1CCC(Oc2cc(-c3ccc4nc5n(c4n3)C3(COC5)COc4ccccc43)ccn2)C1 (stereo not shown) [AX.3]
1000 to 10000 nM | c1nc(N2CCOCC2)ncc1-c1ccc2nc3c(n2n1)C1(CCCCC1)OCC3 [AY.1]
< 1000 nM | c1ccc2c(c1)OCCC21OCCc2nc3ccc(-c4cnc(N5CCOCC5)nc4)nn3c21 (stereo not shown) [AY.2]
< 1000 nM | OC1CCN(c2ncc(-c3ccc4nc5n(c4n3)C(c3ccccc3)COC5)cn2)CC1(F)F (stereo not shown) [AZ.1]
< 1000 nM | OC1CCN(c2ncc(-c3ccc4nc5n(c4n3)C(c3ccccc3)COC5)cn2)CC1 (stereo not shown) [AZ.2]
1000 to 10000 nM | c1ccc(C2COCc3nc4ccc(-c5cnc(N6CCCOCC6)nc5)nc4n32)cc1 (stereo not shown) [AZ.3]
< 1000 nM | OCC1CCCN(c2ncc(-c3ccc4nc5n(c4n3)C(c3ccccc3)COC5)cn2)C1 (stereo not shown) [AZ.4]

IC50 | SMILES
< 1000 nM | OCC1(F)CCN(c2ncc(-c3ccc4nc5n(c4n3)C(c3ccccc3)COC5)cn2)CC1 (stereo not shown) [AZ.5]
1000 to 10000 nM | CC(O)C(=O)N1CCN(c2ncc(-c3ccc4nc5n(c4n3)C(c3ccccc3)COC5)cn2)CC1 (stereo not shown) [AZ.6]
< 1000 nM | O=C(CO)N1CCN(c2ncc(-c3ccc4nc5n(c4n3)C(c3ccccc3)COC5)cn2)CC1 (stereo not shown) [AZ.7]
1000 to 10000 nM | COc1ncc(-c2ccc3nc4n(c3n2)C2(CCOc3ccccc32)COC4)cn1 (stereo not shown) [BA.1]
< 1000 nM | CCOc1ncc(-c2ccc3nc4n(c3n2)C2(CCOc3ccccc32)COC4)cn1 (stereo not shown) [BA.2]
1000 to 10000 nM | CS(=O)(=O)c1ncc(-c2ccc3nc4n(c3n2)C2(CCOc3ccccc32)COC4)cn1 (stereo not shown) [BA.3]
1000 to 10000 nM | c1ccc2c(c1)OCCC21COCc2nc3ccc(-c4cnc(N5CCCNCC5)nc4)nc3n21 (stereo not shown) [BA.4]
1000 to 10000 nM | CC(C)Nc1ncc(-c2ccc3nc4n(c3n2)C2(CCOc3ccccc32)COC4)cn1 (stereo not shown) [BA.5]
< 1000 nM | c1ccc2c(c1)OCCC21COCc2nc3ccc(-c4cnc(N5CCOCC5)nc4)nc3n21 (stereo not shown) [BA.6]
1000 to 10000 nM | CC(C)(O)c1ncc(-c2ccc3nc4n(c3n2)C2(CCOc3ccccc32)COC4)cn1 (stereo not shown) [BA.7]
< 1000 nM | c1ccc2c(c1)OCCC21COCc2nc3ccc(-c4ccnc(OC5CCOCC5)c4)nc3n21 (stereo not shown) [BA.8]
< 1000 nM | O=C1NC[C@@H]2CN(c3ncc(-c4ccc5nc6n(c5n4)C4(CCOc5ccccc54)COC6)cn3)CCN12 (stereo partly shown) [BB.1]
< 1000 nM | OC1CCN(c2ncc(-c3ccc4nc5n(c4n3)C3(CCOc4ccccc43)COC5)cn2)CC1 (stereo not shown) [BB.2]
< 1000 nM | OC1CCCN(c2ncc(-c3ccc4nc5n(c4n3)C3(CCOc4ccccc43)COC5)cn2)C1 (stereo not shown) [BB.3]
< 1000 nM | OC1CN(c2ncc(-c3ccc4nc5n(c4n3)C3(CCOc4ccccc43)COC5)cn2)C1 (stereo not shown) [BB.4]
< 1000 nM | OC1CCN(c2ncc(-c3ccc4nc5n(c4n3)C3(CCOc4ccccc43)COC5)cn2)C1 (stereo not shown) [BB.5]
1000 to 10000 nM | OC1CC(Nc2ncc(-c3ccc4nc5n(c4n3)C3(CCOc4ccccc43)COC5)cn2)C1 (stereo not shown) [BB.6]
1000 to 10000 nM | CC1(O)CN(c2ncc(-c3ccc4nc5n(c4n3)C3(CCOc4ccccc43)COC5)cn2)C1 (stereo not shown) [BB.7]
1000 to 10000 nM | CN1CCN(c2ncc(-c3ccc4nc5n(c4n3)C3(CCOc4ccccc43)COC5)cn2)CC1 (stereo not shown) [BB.8]
1000 to 10000 nM | COCCOc1cc(-c2ccc3nc4n(c3n2)[C@@H](c2ccccc2)CC4)ccn1 [BC.1]
1000 to 10000 nM | CC(C)(O)COc1cc(-c2ccc3nc4n(c3n2)[C@@H](c2ccccc2)CC4)ccn1 [BC.2]
1000 to 10000 nM | c1ccc(C2C3CC(C3)c3nc4ccc(-c5ccnc(OC6CCOCC6)c5)nc4n32)cc1 (stereo not shown) [BD.1]
1000 to 10000 nM | c1ccc(C2C3CC(C3)c3nc4ccc(-c5cnc(N6CCOCC6)nc5)nc4n32)cc1 (stereo not shown) [BE.1]
1000 to 10000 nM | C1=C(c2ccc3nc4n(c3n2)C2(COC4)COc3ccccc32)CNC1 (stereo not shown) [BF.1]
1000 to 10000 nM | CNCC(=O)N1CC=C(c2ccc3nc4n(c3n2)C2(COC4)COc3ccccc32)CC1 (stereo not shown) [BF.2]
1000 to 10000 nM | c1ccc2c(c1)OCC21COCc2nc3ccc(-c4ccnc(OC5CCOCC5)c4)nc3n21 (stereo not shown) [BG.1]
1000 to 10000 nM | COc1ncc(-c2ccc3nc4n(c3n2)C2(COC4)COc3ccccc32)cn1 (stereo not shown) [BG.2]

SMILES | IC50
C[C@H]1CN(c2ncc(-c3ccc4nc5n(c4n3)C3(COC5)COc4ccccc43)cn2)CCN1C(=O)COC(C)(C)C (stereo partly drawn) [BG.3, 2-(tert-Butoxy)-1-((2S)-4-(5-(6′,8′-dihydro-2H-spiro[benzofuran-3,9′-pyrido[3′,2′:4,5]imidazo[2,1-c][1,4]oxazin]-2′-yl)pyrimidin-2-yl)-2-methylpiperazin-1-yl)ethanone] | 1000 to 10000 nM

same assay, conditions: fluorescence polarization competition; 20 nM TNFα trimer, 1 nM OregonGreen488 probe; read-out: TNF IC50 (TNFα FP binding assay IC50)

IC50 | SMILES
< 1000 nM | CC(C)(O)c1ncc(-c2ccc3nc4n(c3c2)C(c2cccc(F)c2)CC4)cn1 (stereo not shown) [B.1]
< 1000 nM | Cc1ccc(C)c(C2CCc3nc4ccc(-c5cnc(C(C)(C)O)nc5)cc4n32)c1 (stereo not shown) [B.2, 2-(5-(1-(2,5-Dimethylphenyl)-2,3-dihydro-1H-benzo[d]pyrrolo[1,2-a]imidazol-7-yl)pyrimidin-2-yl)propan-2-ol]
